Laboratory results published in ChEMBL document CHEMBL1150023, “Design and syntheses of 4-acylaminopyridine derivatives: Novel high affinity choline uptake enhancers II” (Bioorg Med Chem Lett, 1995).

Columns and labels:
Assay type in all cases: functional, organism-based
Details in all cases: Hippocampus
[1] = organism: Rattus norvegicus; experiment: Effect on the uptake amount of [3H]choline in the hippocampal synaptosomes of AF64A-treated rats at 10e-5 M
[2] = organism: Rattus norvegicus; experiment: Effect on the uptake amount of [3H]choline in the hippocampal synaptosomes of AF64A-treated rats at 10e-6 M
[3] = organism: Rattus norvegicus; experiment: Effect on the uptake amount of [3H]choline in the hippocampal synaptosomes of AF64A-treated rats at 10e-7 M

| SMILES | HACU improvement [1] | HACU improvement [2] | HACU improvement [3] |
| --- | --- | --- | --- |
| CCCC(=O)Nc1c2c(nc3ccccc13)CCN(Cc1ccccc1)C2 | 21% | 11% | 10% |
| CCCC(=O)Nc1c2c(nc3ccc(F)cc13)CCCC2 | 7% | -5% | 2% |
| CCCC(=O)Nc1c2c(nc3ccccc13)C(C)CCC2 (stereo not drawn) | 16% | 17% | 10% |
| Cc1oc2nc3c(c(NC(=O)CN4CCCC4=O)c2c1C)CCCC3 | 64% | 72% | 55% |
| CCCC(=O)Nc1c2c(nc3scc(C)c13)CCCC2 | 1% | 3% | 7% |
| CCCC(=O)Nc1c2c(nc3ncccc13)CCCC2 | 13% | 10% | 15% |
| CCCC(=O)Nc1c2c(nc3ccccc13)CCC1(CC1)C2 | 12% | 19% | 3% |
| CCCC(=O)Nc1c2c(nc3ccccc13)CCN(C(=O)c1ccccc1)C2 | -7% | 0% | 7% |
| CCCC(=O)Nc1c2c(nc3ccccc13)CCN(S(=O)(=O)c1ccccc1)C2 | 5% | 10% | 26% |
| Cc1oc2nc3c(c(NC(=O)CN4CC(=O)NC4=O)c2c1C)CCCC3 | 16% | 12% | 5% |
| CCCC(=O)Nc1c2c(nc3ccccc13)CCC(O)C2 (stereo not drawn) | 10% | 16% | 13% |
| CCCC(=O)Nc1c2c(nc3sc(C)c(C)c13)CCCC2 | 20% | 11% | 4% |
| CCCC(=O)Nc1c2c(nc3ccccc13)CCC(=O)C2 | 14% | 14% | 14% |
| CCCC(=O)Nc1c2c(nc3ccccc13)C1CCN2CC1 | 10% | 7% | 7% |
| CNCC(=O)Nc1c2c(nc3oc(C)c(C)c13)CCCC2 | 3% | 10% | 14% |
| Cc1oc2nc3c(c(NC(=O)Cn4ccnc4)c2c1C)CCCC3 | 3% | 4% | 5% |

| SMILES | HACU improvement [1] | HACU improvement [2] | HACU improvement [3] |
| --- | --- | --- | --- |
| CCCC(=O)Nc1c2c(nc3ccccc13)CCC(C)C2 (stereo not drawn) | 6% | -16% | -6% |
| CCCC(=O)Nc1c2c(nc3ccsc13)CCCC2 | 15% | 4% | 7% |
| CCCC(=O)Nc1c2c(nc3ccccc13)CCC(c1ccccc1)C2 (stereo not drawn) | -6% | -7% | -1% |
| CCCC(=O)Nc1c2c(nc3oc(C)nc13)CCCC2 | 18% | 2% | 4% |
| O=C(CN1CCCC1=O)Nc1c2c(nc3ccccc13)CCCC2 | 14% | 17% | 15% |
| CCCC(=O)Nc1c2c(nc3ccccc13)C1CCC2CC1 | -3% | -6% | 5% |
| CCCC(=O)Nc1c2c(nc3ccccc13)CCN(C)C2 | 19% | 9% | 13% |
| CCCC(=O)Nc1c2c(nc3cccc(F)c13)CCCC2 | 3% | 2% | 9% |
| CCCC(=O)Nc1c2c(nc3cccc(C)c13)CCCC2 | 10% | -4% | -2% |
| CCCC(=O)Nc1c2c(nc3ccccc13)CCCC2 | 28% | 24% | 13% |
| CCCC(=O)Nc1c2c(nc3ccccc13)C=CCC2 | -7% | 8% | 14% |
| CCCC(=O)Nc1c2c(nc3sccc13)CCCC2 | 12% | 1% | 1% |
| CCCC(=O)Nc1c2c(nc3oc(C)c(C)c13)CCCC2 | 38% | 20% | 13% |
| CCCC(=O)Nc1c2c(nc3ccccc13)CCC(C)(C)C2 | 1% | 3% | -11% |
| CCCC(=O)Nc1c2c(nc3cc(F)ccc13)CCCC2 | -15% | 3% | -1% |
